Assay results taken from US4880809A, “1,4-disubstituted piperazines (or homopiperazines) as platelet-activating factor antagonists” (Takeda Chemical Industries, Ltd., priority 1987, dated 1989).

Assays:
cerebral infarction [1] = experiment: Action Against Experimental Cerebral Infarction in Mongolian Gerbils (inclined plane); format: in vivo; details: 30 mg/kg, p.o., n = 5
Experimental: (§1) Male 10 weeks old Mongolian gerbils were anesthetized with ether. The common carotid artery on both sides was exposed surgically. After waking, the artery was ligated with steel clips for 15 minutes. Then, the clips were removed and the blood was reperfused for three hours. Ataxia symptoms and manifestations of neuro-deficiency were assessed by the method using stroke index [C. P. McGraw: Arch. Neurol., 34, 334-336 (1977)] and inclined plane [A. S. Rivlin et al.: J. Neurosurg., 47, 577-581 (1977)]. The test compounds were orally administered one hour before ligation as a suspension in gum arabic. The control group was administered with the same volume of gum arabic. The number of animals subjected to this experiment was 5 each in both groups.

ET-induced hypotension = experiment: Anti-Endotoxin Shock Activity in Rats: ET-induced hypotension; format: in vivo, Jcl: SD male rats; details: for Blood Pressure: 30 mg/kg p.o. one hour before ET, n = 5
Experimental: (§2) In a manner similar to that described in Test Example 2, Jcl: SD male rats (200 to 250 g) were applied with cannulation for measurement of blood pressure and for injecting PAF. The test animals were fasted overnight, and the experiments were conducted. The cannula on the side of femoral artery was connected with a pressure transducer and secured. The, endotoxin (ET) (50 mg/kg) was given through the cannula on the side of femoral vein at a rate of 1 ml/kg. While measuring blood pressure continuously, time until death was measured. Test drugs (30 mg/kg) were suspended in gum arabic and water, which were orally administered (5 ml/kg) to test animals one hour before the injection of ET. The animals in the control group were administered with a suspension of gum arabic in water.

[2] = tested on: PAF-Induced Platelet Aggregation; experiment: Inhibitory Action on PAF-Induced Platelet Aggregation; format: cell-based, New Zealand white male rabbits; details: Oryctolagus cuniculus, Drug Concentration: 3 × 10^-5 M, rabbit PRP
Experimental: Blood was collected from the hearts of conscious New Zealand white male rabbits weighing 2 to 3 kg using citric acid as an anticoagulant (one volume part of 3.15% citric acid per 9 volume parts of the whole blood). The blood was subjected to a centrifuge at 800 rpm for ten minutes to obtain platelet rich plasma (PRP). The remaining blood after collecting the PRP was subjected to a centrifuge at 3000 rpm for ten minutes to obtain platelet poor plasma (PPP). PRP was diluted with PPP, and the number of platelets was adjusted to 500,000/μl. Platelet aggregation was examined by means of turbidimetry [Born, Nature, 194, 927-929 (1962)] with 8 channel aggregometer (NBS HEMA TRACER 6 Nikoh, Bioscience, Japan). More concretely, PRP (250 μl) was kept warm (37° C.) for three minutes in a silicon-processed cuvette, to which was added a test sample (25 μl) dissolved in a physiological saline or in 10mM dimethylsulfoxide followed by dilution with a physiological saline. Two minutes later, PAF (25 μl, 3×10^-9 -1×10^-8 M), dissolved in a physiological saline, was added and then the maximum aggregation rate was determined. As the control, physiological saline without test sample was added to the cuvette, and the inhibitory rate thereon was determined.

Wistar-strain rats = experiment: Toxicity Test; format: in vivo, Male Wistar-strain rats; details: 30, 100 and 300 mg/kg per day orally, two weeks
Experimental: Male Wistar-strain rats (5 wk) were used in groups of five individuals. The animals of the respective groups were orally administered with the compound of Example 62 at the dose of 30, 100 and 300 mg/kg per day over a period of two weeks as a suspension in gum arabic and water at a rate of 10 ml/kg. The animals of the control group were administered with a suspension of gum arabic in water. [Results]

[3] = tested on: reversed passive Arthus reaction; experiment: Inhibitory Action Against Reversed Passive Arthus Reaction; format: in vivo, Jcl SD male rats; details: p.o. (n = 6)
Experimental: This reaction was conducted, in accordance with the method reported by Chang and Otterness [Eur. J. Pharmacol., 69, 155 (1981)], by using rabbit anti-egg albumin (EA) antiserum. Jcl SD male rats (7 wk) were used. Under ether anesthesia, the hair of the back was cut and 1 ml of a 0.5% solution of EA in physiological saline was injected into the tail vein, followed by intracutaneous injection of 0.1 ml each of the left- and right-hand sides of the back. Vascular permeability was measured as follows. Three hours later, 1 ml of physiological saline containing 1% of Evans blue was given intravenously, and 30 minutes later, the animals were sacrificed by bleeding and the skin excised, and the area of wheals stained with a leakage of the dye (major axis x minor axis, mm^2). The test compounds were suspended in a 5% gum arabic solution, which was administered orally one hour before administration of the antigen.

cerebral infarction [4] = experiment: Action Against Experimental Cerebral Infarction in Mongolian Gerbils (stroke index); format: in vivo; details: 30 mg/kg, p.o., N = 5
Experimental: as §1

ET-induced death = experiment: Anti-Endotoxin Shock Activity in Rats: ET-induced death; format: in vivo, Jcl: SD male rats; details: for Number of survivals: 30 mg/kg p.o. one hour before ET, n = 5
Experimental: as §2

diabetic nephropathy = experiment: Action Against Diabetic Nephropathy; format: in vivo, Female KKAy mice; details: for albumin (%) excreted in urine / Amount of albumin excreted in urine / Amount of glucose in plasma / Amount of triglyceride in plasma / Total amount of protein in urine: 3 weeks, N 8; for albumin (%) excreted in urine: in parentheses; for Amount of albumin excreted in urine / Amount of glucose in plasma / Amount of triglyceride in plasma / Total amount of protein in urine: means ±SE
Experimental: Female KKAy mice of 10 weeks old were employed. Test animals were administered with the compound of Example 62 for three weeks at doses of 8 and 26 mg/kg/day in admixture with feedstuff. Then, urine was collected from these animals for 24 hours. Urine desalted (filtered urine) by means of a PD-10 column (Pharmacia) was employed to determine the total protein concentration in the urine by using a protein-assay kit (Bio-Rad). The amount ot albumin in the urine was calculated from the relative concentration of albumin to the total protein determined by means of electrophoresis.
Glucose and triglyceride in the plasma were determined by an enzyme method using the Ankol Chemistry System (Baker instruments).

PAF-Induced Hypotension = experiment: Inhibitory Action on PAF-Induced Hypotension; format: in vivo, SD (Jcl) male rats; details: po, 30 mg/kg p.o., rat
Experimental: SD (Jcl) male rats of 6 to 8 week old were subjected to the experiment. After fasting overnight, the rats were cannulated into the femoral artery and vein under anesthesia with pentobarbital. A transducer (MPU-0.5-290O-III, TOYO BALDWIN, Japan) was connected with the artery cannula, and blood pressure was continuously measured. […] The rate of inhibition of lowering of blood pressure after administration of the test samples against the control was evaluated.

[5] = 8 and 26 mg/kg/day, three weeks

SMILES: COc1cc2c(cc1OC)CCCC(C(=O)N1CCN(C(=O)c3cc(OC)c(OC)c(OC)c3)CC1)=C2 [Example 62, 1-(2,3-dimethoxy-6,7-dihydro-5H-benzocyclohepten-8-ylcarbonyl)-4-(3,4,5-trimethoxybenzoyl)piperazine]
- Angle of inclined plane where test animals tumble down the ramp (cerebral infarction [1]; 15 min after reperfusion): 34 ± 3 °
- Angle of inclined plane where test animals tumble down the ramp (cerebral infarction [1]; 30 min after reperfusion): 35 ± 3 °
- Angle of inclined plane where test animals tumble down the ramp (cerebral infarction [1]; 60 min after reperfusion, *P < 0.05): 35 ± 2 °
- Angle of inclined plane where test animals tumble down the ramp (cerebral infarction [1]; 120 min after reperfusion, *P < 0.05): 36 ± 2 °
- Angle of inclined plane where test animals tumble down the ramp (cerebral infarction [1]; 180 min after reperfusion): 38 ± 2 °
- Angle of inclined plane where test animals tumble down the ramp (cerebral infarction [1]; ligation time 0 min): 47 ± 1 °
- Angle of inclined plane where test animals tumble down the ramp (cerebral infarction [1]; ligation time 15 min): 20 ± 0 °
- lowering of blood pressure due to ET (ET-induced hypotension; 30 mg/kg p.o.): suppressed significantly
- Blood Pressure (ET-induced hypotension; 0 min): 92 ± 2 mmHg
- Blood Pressure (ET-induced hypotension; 3 min): 82 ± 6 mmHg
- Blood Pressure (ET-induced hypotension; 5 min, **P < 0.01): 90 ± 4 mmHg
- Blood Pressure (ET-induced hypotension; 10 min, *P < 0.05): 90 ± 4 mmHg
- Blood Pressure (ET-induced hypotension; 15 min): 92 ± 3 mmHg
- Blood Pressure (ET-induced hypotension; 20 min): 95 ± 3 mmHg
- inhibition at 30 µM [2]: 100%
- body weight between the control group and the test group (Wistar-strain rats): No difference in body weight
- general behaviors (Wistar-strain rats): no change was observed in general behaviors
- internal organs under macroscopic observation (autopsy) (Wistar-strain rats): no abnormality in internal organs
- Area of wheals stained with the dye ([3]; 3.1 mg/kg): 52.8 ± 2.7 mm^2
- Preventive effect of reversed passive Arthus reaction ([3]; 3.1 mg/kg): 5%
- Area of wheals stained with the dye ([3]; 12.5 mg/kg): 38.4 ± 6.1 mm^2
- Preventive effect of reversed passive Arthus reaction ([3]; 12.5 mg/kg): 31%
- Preventive effect of reversed passive Arthus reaction ([3]; 50 mg/kg): 70%
- Area of wheals stained with the dye ([3]; 50 mg/kg, **P < 0.01): 16.8 ± 5.1 mm^2
- Stroke index (cerebral infarction [4]; 15 min after reperfusion, **P < 0.01): 4.2 ± 0.6
- Stroke index (cerebral infarction [4]; 30 min after reperfusion, **P < 0.01): 3.4 ± 0.5
- Stroke index (cerebral infarction [4]; 60 min after reperfusion, **P < 0.01): 3.2 ± 0.5
- Stroke index (cerebral infarction [4]; 120 min after reperfusion, **P < 0.01): 2.0 ± 0
- Stroke index (cerebral infarction [4]; 180 min after reperfusion, **P < 0.01): 0.8 ± 0.5
- Stroke index (cerebral infarction [4]; ligation time 0 min): 0
- Stroke index (cerebral infarction [4]; ligation time 15 min, *P < 0.05): 14.0 ± 1.0
- Number of survivals (ET-induced death; 0 hr): 5
- Number of survivals (ET-induced death; 1 hr): 5
- Number of survivals (ET-induced death; 2 hr): 5
- Number of survivals (ET-induced death; 3 hr): 5
- Number of survivals (ET-induced death; 4 hr): 4
- Number of survivals (ET-induced death; 5 hr): 2
- Number of survivals (ET-induced death; 6 hr): 1
- Number of survivals (ET-induced death; 7 hr): 1
- Number of survivals (ET-induced death; 8 hr): 1
- survival time (ET-induced death; 30 mg/kg p.o., control group 108±26 minutes, **): 320 ± 45 min
- albumin (%) excreted in urine (diabetic nephropathy; 8 mg/kg/day p.o.): 46%
- Amount of albumin excreted in urine (diabetic nephropathy; 8 mg/kg/day p.o.): 11.0 ± 2.0 mg/day
- Amount of glucose in plasma (diabetic nephropathy; 8 mg/kg/day p.o.): 326 ± 26 mg/dL
- Amount of triglyceride in plasma (diabetic nephropathy; 8 mg/kg/day p.o.): 499 ± 45 mg/dL
- Total amount of protein in urine (diabetic nephropathy; 8 mg/kg/day p.o.): 23.8 ± 2.9 mg/day
- suppression of excretion of albumin in urine (diabetic nephropathy; 26 mg/kg/day): significant
- albumin (%) excreted in urine (diabetic nephropathy; 26 mg/kg/day p.o.): 36%
- Amount of glucose in plasma (diabetic nephropathy; 26 mg/kg/day p.o.): 381 ± 33 mg/dL
- Amount of triglyceride in plasma (diabetic nephropathy; 26 mg/kg/day p.o.): 546 ± 43 mg/dL
- Total amount of protein in urine (diabetic nephropathy; 26 mg/kg/day p.o.): 22.0 ± 3.8 mg/day
- Amount of albumin excreted in urine (diabetic nephropathy; 26 mg/kg/day p.o., *p<0.05 vs control): 8.0 ± 0.7 mg/day
- excretion of albumin in urine (diabetic nephropathy; [5]): suppressed the excretion of albumin in urine dose-dependently
- plasma glucose (diabetic nephropathy; [5]): No change
- plasma triglyceride (diabetic nephropathy; [5]): No change
- total protein in urine (diabetic nephropathy; high dose): showed a tendency of being suppressed in a high dose
- inhibition in vivo at 30 mg/kg (PAF-Induced Hypotension; after 1 hr): 100%
- inhibition in vivo at 30 mg/kg (PAF-Induced Hypotension; after 2 hrs): 100%
- inhibition in vivo at 30 mg/kg (PAF-Induced Hypotension; after 4 hrs): 100%
